# Laboratory results published in US4405627A, “Diphenylpropylamino-pyridine compounds useful as medicines” (Italiana Schoum S.p.A., priority 1979, dated 1983).
# Counter-ions that a name gives are not always drawn.
# Assays:
# [1] = tested on: carbachol-stimulated intestinal motility; assay: Effect on intestinal progress in rats after excitation with carbachol; type: in vivo, rat; details: 40 mg/kg i.p.; carbachol 30 mcg/kg i.p.; mean of ten ± standard errors; non-stimulated controls 55.7 ± 2.23, stimulated controls 77.95 ± 1.72
# Experimental: Subsequently a further series of tests were carried out in order to evaluate the capability of some examined compounds in hindering the stimulating action on intestinal motility of a dose of carbachol at the concentration of 30 mcg/kg when intraperitoneally administered. Carbachol or carbamylcholine chloride is a known substance endowed with parasympathomimetic action.
# The control group was given an equal volume of saline.
# The survey of the data as given in tables 6 was carried out as previously described by considering the percent intestinal progress of opaque meal with respect to the total length of small intestine.
# [2] = tested on: guinea pig ileum; assay: Acetylcholine-induced contraction on guinea pig ileum in vitro; set-up: species or system guinea pig (Whitish female); details: for IC50: Cavia porcellus, acetylcholine 0.1 mcg/ml, Tyrode, 37° C., 3 minutes before spasmogen, read-out: CI50 (the source's name); for acetylcholine-induced contraction on guinea pig ileum: result in words
# Experimental: (§1) On the guinea pig ileum, which has a minimum intrinsic motility but a remarkable sensibility to agents causing a contracture or a relaxation of the intestinal smooth muscular system, it was possible to further evaluate the spasmolytic activity of the examined substances. As spasmogenic agents acetylcholine and BaCl2 were used which were respectively added to the bath at final concentrations of 0.1 mcg/ml and 50 mcg/ml.
# (§2) Ten preparations of guinea pig ileum for each compound were prepared, yet maintaining the same dose range which was used on rabbit ileum.
# (§3) The contractions were measured by means of an isotonic transducer connected with a microdynamometer. Each preparation was left dipped for about 30 minutes up to reach the equilibrium.
# (§4) After this time, the single doses of each substance to be examined were introduced three minutes before the spasmogenic substance which was contacted with the preparation for 1 minute. Before the subsequent dose of drug was introduced, the tested organ was allowed to recover the basal conditions and this was ascertained by using the only spasmogenic substance. The process was repeated for all the other concentrations. Afterwards the comparison with the reference spasmolytic substance having a known activity, namely papaverine, was carried out yet working in the same conditions and according to the same procedure.
# [3] = tested on: acetylcholine-induced chromodacryorrhea; assay: Anticholinergic activity on chromodacryorrhea from acetylcholine; type: in vivo, rat (male Wistar); details: for Chromodacryorrhea: acetylcholine 160 mcg s.c.; for effect on acetylcholine-induced chromodacryorrhea: 50 mg/kg, result in words
# Experimental: (§5) In order to evaluate the possible undesirable collateral systemic effects, tests of central and peripheral anticholinergic activity were carried out by using two animal species, mouse and rat.
# Another series of experiments was carried out on male Wistar rats averaging 150 g in order to point out the anticholinergic activity at the glandular level.
# A first control group consisting of six animals was subcutaneously injected with 160 mcg of acetylcholine.
# [4] = tested on: rabbit ileum; assay: Spontaneous motility in vitro of rabbit ileum; set-up: species or system rabbit (New Zealand male); details: Oryctolagus cuniculus; 50% reduction of amplitude of the basal contraction; Tyrode, 37° C.; read-out: CI50 (the source's name)
# Experimental: The spontaneous motility of the preparations was measured by a isotonic transducer connected with a microdynamometer. Each preparation was previously left dipped for about one hour in the solution up to reach the osmotic equilibrium.
# After this time the single compounds were poured in the bath in gradual doses up to notice the quite total disappearance of spontaneous activity in the organ. For sake of comparison parallel tests with papaverine were carried out.
# [5] = Acute toxicity (DL50) in mouse; type: in vivo; details: mouse, in vivo
# Experimental: (§6) The determination of the lethal dose to 50% of the animals which were treated with the examined substances was obtained by using male Swiss mice averaging 22 g and by considering two administration ways: oral and intraperitoneal.
# (§7) Groups of six animals of each dose were prepared which were kept under observation for 7 days and fasting since the evening before the experience.
# (§8) During the observation period possible and clear changes in activity and behaviour were controlled by using the Irwin test: a behavioural outline of the treated animals was obtained with respect to other subjects which received reference drugs.
# (§9) The calculation of acute toxicity was carried out by using the Litchfield and Wilcoxon procedure (J. Pharmac. Exp. Ther. 96, 99, 1949).
# (§10) The acute toxicity values in mg/kg are given in table 9 in the form of average values with the relevant fiducial limits in comparison with papaverine.
# [6] = Solubility; type: physicochemical; details: saline; read-out: maximum dose consistent with the total solubility in saline
# [7] = tested on: rabbit ileum; assay: BaCl2-induced contraction on isolated rabbit ileum; details: Oryctolagus cuniculus; 50% reduction of the BaCl2-induced contraction; BaCl2 50 mcg/ml; read-out: CI50 (the source's name)
# Excerpt: The activity of same compounds in antagonizing the spasm as caused by BaCl2 introduced in the bath at a concentration of 50 mcg/ml one minute before each test was studied. Also for this preparation a comparison with papaverine was at last carried out.
# [8] = tested on: effects caused by Tremorin; assay: Central and peripheral anticholinergic activity in mouse after administration of Tremorin; type: in vivo, mouse (Swiss male); details: for Tremors / Miosis / Ptyalism: Tremorin 25 mg/kg i.p.; for Tremors: central activity; for Miosis / Ptyalism: peripheral activity; for antagonism of the effects of Tremorin / anticholinergic side effects: result in words, hydrochloride; as to Miosis: key: +: Presence of the effect (ptyalism, miosis, tremors); -: Lack of the effect (ptyalism, miosis, tremors); as to Ptyalism: key: +: Presence of the effect (ptyalism, miosis, tremors); -: Lack of the effect (ptyalism, miosis, tremors); as to Tremors: key: +: Presence of the effect (ptyalism, miosis, tremors); -: Lack of the effect (ptyalism, miosis, tremors)
# Experimental: as §5
# In the first series of tests Swiss male mice averaging 25 g were used which were subdivided in three groups of 8 animals. […] The third, control group was given an equal volume of saline.
# In watching the effects caused by Tremorin during the development of its action, beside the time for the appearance of tremors as an index of the central activity, further parameters such as ptyalism and miosis were contemplated as indexes of peripheral activity.
# [9] = tested on: small intestine; assay: Effect on the intestinal progress of opaque meal in rat; type: in vivo, rat (Male Wistar); details: for Progress %: 40 minutes after opaque meal, mean of ten ± standard error, controls 81.76 ± 2.33
# Experimental: Male Wistar rats weighing 150-180 g were employed subdivided in groups of ten subjects, which were maintained fasting for 18 hours before the test.
# Two administration ways were considered: oral and intraperitoneal.
# In the first set of tests to every group of animals each compound was orally administered in the form of an aqueous solution or suspension in gum-arabic (10% in water) 40 minutes before an opaque meal consisting of a suspension of 5% vegetable charcoal in gum-arabic (20% in water).
# The animals were killed by cranial injury 40 minutes after the oral administration of the opaque meal and the small intestine was drawn. To the control group an equal volume of saline was administered in the same administration way. The second set of tests was carried out by administering intraperitoneally the compounds 30 minutes before the opaque meal. The animals were killed 40 minutes after the swallowing of the alimentary bolus and the small intestine was drawn; to the control group an equal volume of saline was injected. The total length of small intestine and the progress of opaque meal were measured in each killed animal.
# [10] = tested on: guinea pig ileum; assay: BaCl2-induced contraction on guinea pig ileum in vitro; set-up: species or system guinea pig (Whitish female); details: for IC50: Cavia porcellus, BaCl2 50 mcg/ml, Tyrode, 37° C., 3 minutes before spasmogen, read-out: CI50 (the source's name); for BaCl2-induced contraction on guinea pig ileum: result in words
# Experimental: as §1, §2, §3, §4
# [11] = tested on: mouse; assay: Acute toxicity (DL50) in mouse; type: in vivo; details: result in words; orally and intraperitoneally
# Experimental: as §6, §7, §8, §9, §10
# [12] = ip, average values with fiducial limits, 7 days observation
# [13] = po, os, average values with fiducial limits, 7 days observation
SMILES,IC50 [2] [µM],acetylcholine-induced contraction on guinea pig ileum [2],IC50 [4] [µM],"LD50 at 168 h [5, 13] [mg/kg]",IC50 [7] [µM],IC50 [10] [µM],BaCl2-induced contraction on guinea pig ileum [10],other results
"c1ccc(C(CCNc2cccnc2)c2ccccc2)cc1 [N-(3'-pyridyl)-3,3-diphenylpropylamine hydrochloride]",10,also effective on the acetylcholine-induced contraction,12,> 800,28,6.7,more active than papaverine,"Progress % [1]: 49.85 ± 3.34%; Chromodacryorrhea ([3]; 50 mg/kg i.p.): +; effect on acetylcholine-induced chromodacryorrhea [3]: do not modify the acetylcholine-induced chromodacryorrhea; LD50 at 168 h [5, 12]: 340 mg/kg; solubility [6]: 1000 µg/mL; Tremors ([8]; 50 mg/kg i.p.): -; Miosis ([8]; 50 mg/kg i.p.): +; Ptyalism ([8]; 50 mg/kg i.p.): +; Tremors ([8]; 100 mg/kg i.p.): -; Miosis ([8]; 100 mg/kg i.p.): -; Ptyalism ([8]; 100 mg/kg i.p.): -; Progress % ([9]; 20 mg/kg i.p.): 75.06 ± 5.94%; Progress % ([9]; 100 mg/kg os): 79.10 ± 5.3%"
"CC[n+]1ccc(NCCC(c2ccccc2)c2ccccc2)cc1 [4-(3',3'-diphenylpropyl-1'-amino)-1-ethyl-pyridinium iodide]",10,,24,,22,8.9,,
"c1ccc(C(CCNc2ccccn2)c2ccccc2)cc1 [N-(2'-pyridyl)-3,3-diphenylpropylamine hydrochloride]",11,also effective on the acetylcholine-induced contraction,13,,14,5.6,more active than papaverine,"Progress % [1]: 42.25 ± 3.34%; Chromodacryorrhea ([3]; 50 mg/kg i.p.): +; effect on acetylcholine-induced chromodacryorrhea [3]: do not modify the acetylcholine-induced chromodacryorrhea; acute toxicity [11]: The less toxic compound; LD50 at 168 h ([5]; ip): 360 mg/kg; LD50 at 168 h ([5]; po): > 1500 mg/kg; solubility [6]: 1000 µg/mL; Tremors ([8]; 50 mg/kg i.p.): +; Miosis ([8]; 50 mg/kg i.p.): +; Ptyalism ([8]; 50 mg/kg i.p.): +; Tremors ([8]; 100 mg/kg i.p.): +; Miosis ([8]; 100 mg/kg i.p.): +; Ptyalism ([8]; 100 mg/kg i.p.): +; antagonism of the effects of Tremorin / anticholinergic side effects ([8]; listed as N-(2'-pyridyl)-3,3-diphenyl-propylamine hydrochloride): does not antagonize the ffects of Tremorin neither at a central level nor at a peripheral level; antagonism of the effects of Tremorin / anticholinergic side effects ([8]; listed as N-(2'-pyridyl)-3,3-diphenylpropylamine hydrochloride): does not show anticholinergic side effects at a central level also at high doses; Progress % ([9]; 20 mg/kg i.p.): 62.10 ± 2.54%; Progress % ([9]; 50 mg/kg os): 67.65 ± 2.54%; reducing the progress of an opaque meal ([9]; oral and intraperitoneal, result in words): the most active compound in reducing the progress of an opaque meal in both of the considered administration ways"
"CC[n+]1ccccc1NCCC(c1ccccc1)c1ccccc1 [2-(3',3'-diphenylpropyl-1'-amino)-1-ethylpyridinium iodide]",6.2,,18,,,3.4,,
"C[n+]1ccccc1NCCC(c1ccccc1)c1ccccc1 [2-(3',3'-diphenylpropyl-1'-amino)-1-methylpyridinium iodide]",4.6,also effective on the acetylcholine-induced contraction,26,350,10,4.3,more active than papaverine,Progress % ([9]; 100 mg/kg os): 73.63 ± 4.33%
"COc1ccc(Cc2nccc3cc(OC)c(OC)cc23)cc1OC [Papaverine hydrochloride, reference compound]",8.5,,39,315,56,9.2,,"LD50 at 168 h [5, 12]: 66 mg/kg; Progress % ([9]; 200 mg/kg os): 70.2 ± 2.61%"
"C[n+]1cccc(NCCC(c2ccccc2)c2ccccc2)c1 [3-(3',3'-diphenylpropyl-1'-amino)-1-methylpyridinium iodide]",17,,15,,14,,,
"CN1[C@@H]2CC[C@H]1C[C@@H](OC(=O)C(CO)c1ccccc1)C2 (stereo partly shown) [Atropine sulfate, reference compound]",,,,,,,,Chromodacryorrhea ([3]; 1 mg/kg i.p.): -; Tremors ([8]; 60 mg/kg i.p.): -; Miosis ([8]; 60 mg/kg i.p.): -; Ptyalism ([8]; 60 mg/kg i.p.): -
"CC[n+]1cccc(NCCC(c2ccccc2)c2ccccc2)c1 [3-(3',3'-diphenylpropyl-1'-amino)-1-ethylpyridinium iodide]",12,,16,,35,,,
"C[n+]1ccc(NCCC(c2ccccc2)c2ccccc2)cc1 [4-(3',3'-diphenylpropyl-1'-amino)-1-methyl-pyridinium iodide]",16,,18,,14,,,
